The values below come from patent publication US20250352488A1, “IONIZABLE LIPIDS AND NANOPARTICLES COMPRISING SAME” (MANA BIO LTD., priority 2022, published 2025).

Experiment [1] concerns cells. Kind of experiment: cell-penetration of LNPs and intracellular delivery of mRNA. The class given is cell-based. The settings on record: LNPs containing the compound as ionizable lipid; compared to a similar composition comprising Dlin-MC3-DMA. The procedure: The inventors determined cell-penetration of the exemplary LNPs and intracellular delivery of mRNA.
More specifically, particles were incubated on cells for 16-24 hrs at 37° C. under 5% CO2 and expression levels were measured. Formulations were compared to Lipofectamine control and to MC3 control, as well as to untreated controls.

Experiment [2] deals with BALB/c mouse. Nature of the experiment: in vivo expression distribution of encapsulated mRNA F-LUC (IVIS imaging, ex-vivo tissue analysis). The settings on record: intravenous, 13 μg/mouse. The procedure:
(§1) The inventors determined the expression distribution of the exemplary LNPs in vivo by assessing expression of the encapsulated mRNA (mRNA F-LUC). The LNPS of the invention encapsulating mRNA F-LUC have been injected intravenously into a BALB/c mouse, at a dosage of 13 μg/mouse (0.52-0.65 mg/kg). In-vivo imaging were done by IVIS imaging. Ex-vivo tissue analysis was done for lung, heart, spleen, kidney, and liver using IVIS. Histology assessment was determined by H&E staining with pathologist report for toxicity. Histology assessment concluded normal morphology without any treatment related pathological changes.
as §1, with “LNPs” for “LNPS”

Experiment [3] deals with lung cells. Nature of the experiment: cell-based studies of specificity to lung cells. The settings on record: LNPs containing the compound as ionizable lipid; compared to a similar composition comprising Dlin-MC3-DMA.

The structures appear in SMILES notation.

For the molecule `CCCCCCCCOCC(O)CN(CCOCCOCCN(CC(O)COCCCCCCCC)CC(O)COCCCCCCCC)CC(O)COCCCCCCCC` (centres unmarked) [MB-212], the internalization efficiency result in experiment [1] is reported as “superior internalization efficiency”. Besides, in experiment [2], the “lung specificity of the LNP” value is “enhanced lung specificity”. In addition, the “specificity to the lung cells” value in experiment [3] is given as “enhanced specificity to the lung cells”.
Regarding `CCCCCCCCCCCCOCC(O)CN(CCCCCCCCN(CC(O)COCCCCCCCCCCCC)CC(O)COCCCCCCCCCCCC)CC(O)COCCCCCCCCCC` (centres unmarked) [MB-205], the internalization efficiency entry in experiment [1] is given as “superior internalization efficiency”.
`CCCCCCCCCOCC(O)CN(CCN(CC(O)COCCCCCCCCC)CC(O)COCCCCCCCCC)CC(O)COCCCCCCCCC` (centres unmarked) [MB-77]: the internalization efficiency result in experiment [1] is reported as “superior internalization efficiency”.
Consider `CCCCCCCCOCC(O)CN(CCCCCCCCN(CC(O)COCCCCCCCC)CC(O)COCCCCCCCC)CC(O)COCCCCCCCC` (centres unmarked) [MB-222], for which the “lung specificity of the LNP” value in experiment [2] is listed as “enhanced lung specificity”. In addition, in experiment [3], the “specificity to the lung cells” value is listed as “enhanced specificity to the lung cells”.
For `CCCCCCCCOCC(O)CN(CCCCN(CC(O)COCCCCCCCC)CC(O)COCCCCCCCC)CC(O)COCCCCCCCC` (centres unmarked) [MB-208], the internalization efficiency entry in experiment [1] is given as “superior internalization efficiency”.
